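All cell lines were grown in 96-well plates and treated with compound for 48 hours. TGI is the concentration that stops growth completely.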
Tests used:
Test in all cases: NCI anticancer screen, dose series, 48 h
[1] = system: 786-0 renal
[2] = system: A498 renal
[3] = system: A549 NSCLC
[4] = system: ACHN renal
[5] = system: BT-549 breast
[6] = system: CAKI-1 renal
[7] = system: CCRF-CEM leukemia
[8] = system: COLO 205 colon
[9] = system: DU-145 prostate
[10] = system: EKVX NSCLC
[11] = system: HCC-2998 colon
[12] = system: HCT-116 colon
[13] = system: HCT-15 colon
[14] = system: HL-60(TB) leukemia
[15] = system: HOP-62 NSCLC
[16] = system: HOP-92 NSCLC
[17] = system: HT29 colon
[18] = system: IGROV1 ovarian
[19] = system: K-562 leukemia
[20] = system: KM12 colon
[21] = system: LOX IMVI melanoma
[22] = system: M14 melanoma
[23] = system: MALME-3M melanoma
[24] = system: MCF7 breast
[25] = system: MDA-MB-231 breast
[26] = system: MDA-MB-435
[27] = system: MDA-N
[28] = system: MOLT-4 leukemia
[29] = system: NCI-H226 lung
[30] = system: NCI-H23 lung
[31] = system: NCI-H460 lung
[32] = system: NCI-H522 lung
[33] = system: NCI/ADR-RES ovarian
[34] = system: OVCAR-3 ovarian
[35] = system: OVCAR-4 ovarian
[36] = system: OVCAR-5 ovarian
[37] = system: OVCAR-8 ovarian
[38] = system: PC-3 prostate
[39] = system: RPMI-8226 leukemia
[40] = system: RXF 393 renal
[41] = system: SF-268 CNS
[42] = system: SF-295 CNS
[43] = system: SF-539 CNS
[44] = system: SK-MEL-2 melanoma
[45] = system: SK-MEL-28 melanoma
[46] = system: SK-MEL-5 melanoma
[47] = system: SK-OV-3 ovarian
[48] = system: SN12C renal
[49] = system: SNB-19 CNS
[50] = system: SNB-75 CNS
[51] = system: SR leukemia
[52] = system: SW-620 colon
[53] = system: T-47D breast
[54] = system: TK-10 renal
[55] = system: U251 CNS
[56] = system: UACC-257 melanoma
[57] = system: UACC-62 melanoma
[58] = system: UO-31 renal
[59] = system: HS 578T breast

CN1C(=O)[C@](C)(Cc2ccc(F)cc2)N(C(=O)OC(C)(C)C)[C@@H]1C(C)(C)C
TGI [1]: 68.4 µM
TGI [2]: 70 µM
TGI [3]: > 100 µM
TGI [4]: > 100 µM
TGI [5]: > 100 µM
TGI [6]: > 100 µM
TGI [7]: > 100 µM
TGI [8]: 39.7 µM
TGI [9]: > 100 µM
TGI [10]: > 100 µM
TGI [11]: 76.2 µM
TGI [12]: > 100 µM
TGI [13]: > 100 µM
TGI [14]: 26.2 µM
TGI [15]: > 100 µM
TGI [16]: > 100 µM
TGI [17]: 45.6 µM
TGI [18]: > 100 µM
TGI [19]: 65.7 µM
TGI [20]: > 100 µM
TGI [21]: 53 µM
TGI [22]: > 100 µM
TGI [23]: > 100 µM
TGI [24]: 59.3 µM
TGI [25]: > 100 µM
TGI [26]: > 100 µM
TGI [27]: > 100 µM
TGI [28]: 40.6 µM
TGI [29]: 67.3 µM
TGI [30]: > 100 µM
TGI [31]: > 100 µM
TGI [32]: 46.9 µM
TGI [33]: 44.8 µM
TGI [34]: 84 µM
TGI [35]: > 100 µM
TGI [36]: > 100 µM
TGI [37]: 91.7 µM
TGI [38]: > 100 µM
TGI [39]: 49.4 µM
TGI [40]: 59.9 µM
TGI [41]: > 100 µM
TGI [42]: 50.7 µM
TGI [43]: > 100 µM
TGI [44]: > 100 µM
TGI [45]: > 100 µM
TGI [46]: 37.6 µM
TGI [47]: > 100 µM
TGI [48]: 32.4 µM
TGI [49]: > 100 µM
TGI [50]: > 100 µM
TGI [51]: 43.9 µM
TGI [52]: > 100 µM
TGI [53]: 90.1 µM
TGI [54]: > 100 µM
TGI [55]: > 100 µM
TGI [56]: 92.3 µM
TGI [57]: > 100 µM
TGI [58]: > 100 µM

C/C(=N\Nc1nc2ccccc2n1C)c1ccncn1
TGI [1]: 20.3 µM
TGI [2]: 5.79 µM
TGI [3]: > 32 µM
TGI [4]: 30.9 µM
TGI [5]: > 100 µM
TGI [6]: > 75 µM
TGI [7]: > 52.6 µM
TGI [8]: > 100 µM
TGI [9]: > 44.7 µM
TGI [10]: > 47.7 µM
TGI [11]: > 100 µM
TGI [12]: > 39.8 µM
TGI [13]: > 88.1 µM
TGI [14]: 0.0439 µM
TGI [15]: > 100 µM
TGI [16]: 2.64 µM
TGI [59]: > 100 µM
TGI [17]: 30.3 µM
TGI [19]: > 100 µM
TGI [20]: 30.7 µM
TGI [22]: 0.44 µM
TGI [23]: > 100 µM
TGI [24]: > 100 µM
TGI [25]: > 76.6 µM
TGI [27]: > 100 µM
TGI [28]: > 100 µM
TGI [29]: > 45.7 µM
TGI [30]: > 100 µM
TGI [31]: > 100 µM
TGI [32]: > 31.4 µM
TGI [33]: 0.458 µM
TGI [35]: > 100 µM
TGI [36]: > 100 µM
TGI [37]: > 40.9 µM
TGI [38]: > 100 µM
TGI [41]: > 100 µM
TGI [42]: > 100 µM
TGI [43]: 21.8 µM
TGI [44]: > 100 µM
TGI [45]: 0.168 µM
TGI [46]: 11.6 µM
TGI [47]: > 100 µM
TGI [48]: > 100 µM
TGI [49]: > 100 µM
TGI [50]: > 70.9 µM
TGI [51]: > 100 µM
TGI [52]: > 47.6 µM
TGI [53]: > 100 µM
TGI [54]: > 100 µM
TGI [55]: > 32.9 µM
TGI [56]: > 100 µM
TGI [58]: 22.9 µM

Cc1nc(C)c(C(=O)NNC(=O)c2ccccc2)cc1C(=O)NNC(=O)c1ccccc1
TGI [1]: > 100 µM
TGI [2]: > 100 µM
TGI [3]: > 100 µM
TGI [4]: > 100 µM
TGI [5]: > 100 µM
TGI [6]: > 100 µM
TGI [7]: > 100 µM
TGI [8]: > 100 µM
TGI [9]: > 100 µM
TGI [10]: > 10 µM
TGI [11]: > 100 µM
TGI [12]: > 100 µM
TGI [13]: > 100 µM
TGI [14]: > 100 µM
TGI [15]: > 100 µM
TGI [16]: > 100 µM
TGI [59]: > 100 µM
TGI [17]: > 100 µM
TGI [18]: > 10 µM
TGI [19]: > 100 µM
TGI [20]: > 10 µM
TGI [21]: > 100 µM
TGI [22]: > 100 µM
TGI [24]: > 100 µM
TGI [25]: > 100 µM
TGI [26]: > 100 µM
TGI [27]: > 100 µM
TGI [28]: > 100 µM
TGI [29]: > 100 µM
TGI [30]: > 100 µM
TGI [31]: > 100 µM
TGI [32]: > 100 µM
TGI [33]: > 100 µM
TGI [34]: > 100 µM
TGI [35]: > 100 µM
TGI [36]: > 100 µM
TGI [37]: > 100 µM
TGI [38]: > 100 µM
TGI [39]: > 100 µM
TGI [40]: > 100 µM
TGI [41]: > 100 µM
TGI [42]: > 100 µM
TGI [43]: > 100 µM
TGI [44]: > 100 µM
TGI [46]: > 100 µM
TGI [47]: > 100 µM
TGI [48]: > 100 µM
TGI [49]: > 100 µM
TGI [50]: > 10 µM
TGI [52]: > 100 µM
TGI [53]: > 100 µM
TGI [54]: > 100 µM
TGI [55]: > 100 µM
TGI [56]: > 100 µM
TGI [57]: > 100 µM
TGI [58]: > 100 µM

Reference: PubChem BioAssay (NCI)
